Data from US7709511B2, “Benzothiazolone derivatives” (AstraZeneca AB, priority 2005, dated 2010).
Structures can show the parent of a compound that is named as a salt.

Legend:
Adrenergic β2 [1] = biological target: T1, Adrenergic β2 (Homo sapiens, UniProt P07550); test: Adrenergic β2 mediated cAMP production in H292 cells (AlphaScreen cAMP detection); format: cell-based; conditions: for EC50: cAMP, test compounds incubated 10 minutes at room temperature, 300 μM rolipram; for Intrinsic Activity: fraction relative to the maximum activity determined for formoterol, 10 minutes incubation
T1 construct: endogenous in cells; host or cells: H292 cells
Description: Adrenergic β2 Mediated cAMP Production
H292 cells were grown in RPMI (Roswell Park Memorial Institute) medium containing, 10% (v/v) FBS (foetal bovine serum) and 2 mM L-glutamine. Cells were grown in 225 cm2 flasks containing 25 mL media in a humidified incubator at 37° C., 5% CO2. Cells were harvested from the flask and passaged at a 1 in 10 dilution once per week.
The media from flasks containing H292 cells was removed, rinsed with 10 mL PBS (phosphate buffered saline) and replaced with 10 mL Accutase™ cell detachment solution. Flasks were incubated for 15 minutes in a humidified incubator at 37° C., 5% CO2. The cell suspension was counted and the cells re-suspended in RPMI media (containing 10% (v/v) FBS and 2 mM L-glutamine) at 0.05×10^6 cells per mL. 5000 cells in 100 μL were added to each well of a tissue-culture-treated 96-well plate and the cells incubated overnight in a humidified incubator at 37° C., 5% CO2. The culture media was removed, washed twice with 100 μL assay buffer and replaced with 50 μL assay buffer. Cells were rested at room temperature for 20 minutes after which time 25 μL of rolipram (1.2 mM made up in assay buffer containing 2.4% (v/v) dimethylsulphoxide) was added. Cells were incubated with rolipram for 10 minutes after which time test compounds (made up as ×4 concentrated stocks in assay buffer containing 4% (v/v) dimethylsulphoxide) were added and the cells were incubated for 10 minutes at room temperature. Final rolipram concentration in the assay was 300 μM and final vehicle concentration was 1.6% (v/v) dimethylsulphoxide. The reaction was stopped by removing supernatants, washing once with 100 μL assay buffer and replacing with 50 μL lysis buffer. The cell monolayer was frozen at −80° C. for 30 minutes (or overnight).
(§1) AlphaScreen™ cAMP Detection
(§2) The concentration of cAMP (cyclic adenosine monophosphate) in the cell lysate was determined using the AlphaScreen™ methodology. The frozen cell plate was thawed for 20 minutes on a plate shaker then 10 μL of the cell lysate was transferred to a 96-well white plate. 40 μL of mixed AlphaScreen™ detection beads (containing equal volumes of donor beads (pre-incubated with biotinylated cAMP in the dark for 30 minutes) and acceptor beads), was added to each well and the plate incubated at room temperature for 10 hours in the dark. The AlphaScreen™ signal was measured using an EnVision spectrophotometer (Perkin-Elmer Inc.) with the recommended manufacturer's settings. cAMP concentrations were determined by reference to a calibration curve determined in the same experiment using standard cAMP concentrations (made up in lysis buffer in a 96-well tissue-culture-treated plate and frozen/thawed alongside the test samples) and detected using the same protocol. Concentration response curves for agonists were constructed to determine both the pEC50 and Intrinsic Activity. Intrinsic Activity was expressed as a fraction relative to the maximum activity determined for formoterol in each experiment.

Adrenergic β2 [2] = biological target: T1, Adrenergic β2; test: Alternative adrenergic β2 mediated cAMP production in H292 cells (AlphaScreen cAMP detection); format: cell-based; conditions: for EC50: cAMP, test compounds incubated 60 minutes at room temperature, 300 μM rolipram, read-out: β2 pEC50 (converted); for β2 Int Act: fraction relative to the maximum activity determined for formoterol, 60 minutes incubation
Description: Alternative Adrenergic β2 Mediated cAMP Production Cell Preparation
H292 cells were grown in 225 cm2 flasks incubator at 37° C., 5% CO2 in RPMI medium containing, 10% (v/v) FBS (foetal bovine serum) and 2 mM L-glutamine.
Adherent H292 cells were removed from tissue culture flasks by treatment with Accutase™ cell detachment solution for 15 minutes. Flasks were incubated for 15 minutes in a humidified incubator at 37° C., 5% CO2. Detached cells were re-suspended in RPMI media (containing 10% (v/v) FBS and 2 mM L-glutamine) at 0.05×10^6 cells per mL. 5000 cells in 100 μL were added to each well of a tissue-culture-treated 96-well plate and the cells incubated overnight in a humidified incubator at 37° C., 5% CO2. The culture media was removed and cells were washed twice with 100 μL assay buffer and replaced with 50 μL assay buffer (HBSS solution containing 10 mM HEPES pH7.4 and 5 mM glucose). Cells were rested at room temperature for 20 minutes after which time 25 μL of rolipram (1.2 mM made up in assay buffer containing 2.4% (v/v) dimethylsulphoxide) was added. Cells were incubated with rolipram for 10 minutes after which time test compounds were added and the cells were incubated for 60 minutes at room temperature. The final rolipram concentration in the assay was 300 μM and final vehicle concentration was 1.6% (v/v) dimethylsulphoxide. The reaction was stopped by removing supernatants, washing once with 100 μL assay buffer and replacing with 50 μL lysis buffer. The cell monolayer was frozen at −80° C. for 30 minutes (or overnight).
as §1
as §2, with “using” for “using the”, “pre-incubated” for “(containing equal volumes of donor beads (pre-incubated”, “cAMP,” for “cAMP in the dark for 30 minutes) and acceptor beads),”, “concentrations.” for “concentrations (made up in lysis buffer in a 96-well tissue-culture-treated plate and frozen/thawed alongside the test samples) and detected using the same protocol.”, “constructed and data was fitted to a four parameter logistic equation” for “constructed”

T1 sequence (P07550 whole entry): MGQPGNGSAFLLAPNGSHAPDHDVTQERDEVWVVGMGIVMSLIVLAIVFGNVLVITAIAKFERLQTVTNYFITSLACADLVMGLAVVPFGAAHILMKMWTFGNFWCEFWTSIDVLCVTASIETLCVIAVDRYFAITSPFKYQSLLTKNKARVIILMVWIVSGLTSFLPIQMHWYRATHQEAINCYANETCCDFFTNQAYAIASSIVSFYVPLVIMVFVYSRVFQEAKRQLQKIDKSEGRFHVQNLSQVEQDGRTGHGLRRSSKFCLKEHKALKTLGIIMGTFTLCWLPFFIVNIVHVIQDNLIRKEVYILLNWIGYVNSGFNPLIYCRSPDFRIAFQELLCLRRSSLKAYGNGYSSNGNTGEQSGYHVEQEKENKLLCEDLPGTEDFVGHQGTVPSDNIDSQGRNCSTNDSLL

Row | SMILES | EC50 (Adrenergic β2 [1]) | Intrinsic Activity (Adrenergic β2 [1]) | EC50 (Adrenergic β2 [2]) | β2 Int Act (Adrenergic β2 [2])
1 | O=C(CCOCCc1ccccc1)N(CCNCCc1ccc(O)c2[nH]c(=O)sc12)Cc1cccnc1 [Example 5, N-[2-[2-(4-Hydroxy-2-oxo-3H-benzothiazol-7-yl)ethylamino]ethyl]-3-phenethyloxy-N-(3-pyridylmethyl)propanamide] | 12.6 nM | 0.8 |  | 
2 | CCN(CC)CCN(CCNCCc1ccc(O)c2[nH]c(=O)sc12)C(=O)CCOCCc1ccccc1 [Example 12, N-[2-(Diethylamino)ethyl]-N-(2-{[2-(4-hydroxy-2-oxo-2,3-dihydro-1,3-benzothiazol-7-yl)ethyl]amino}ethyl)-3-(2-phenylethoxy)propanamide] | 15.8 nM | 0.8 | 7.94 nM | 0.8
3 | CCN(CC)CCN(CCNCCc1ccc(O)c2[nH]c(=O)sc12)C(=O)CCOCCc1cccc(C(F)(F)F)c1 [Example 25, N-(2-Diethylaminoethyl)-N-{2-[2-(4-hydroxy-2-oxo-2,3-dihydro-1,3-benzothiazol-7-yl)ethylamino]ethyl}-3-[2-(3-trifluoromethylphenyl)ethoxy]propanamide dihydrobromide] |  |  | 63.1 nM | 0.8
4 | CCN(CC)CCN(CCNCCc1ccc(O)c2[nH]c(=O)sc12)C(=O)CCOCCc1cc(OC)ccc1Br [Example 21, 3-[2-(2-Bromo-5-methoxyphenyl)ethoxy]-N-[2-(diethylamino)ethyl]-N-(2-{[2-(4-hydroxy-2-oxo-2,3-dihydro-1,3-benzothiazol-7-yl)ethyl]amino}ethyl)propanamide dihydrobromide] |  |  | 79.4 nM | 0.6
5 | CCN(CC)CCN(CCNCCc1ccc(O)c2[nH]c(=O)sc12)C(=O)CCOCCc1c(Cl)cccc1Cl [Example 24, 3-[2-(2,6-Dichlorophenyl)ethoxy]-N-(2-diethylaminoethyl)-N-{2-[2-(4-hydroxy-2-oxo-2,3-dihydro-1,3-benzothiazol-7-yl)ethylamino]ethyl}propanamide dihydrobromide] |  |  | 100 nM | 0.9

Further lines, results first:

Row | EC50 (Adrenergic β2 [1]) | Intrinsic Activity (Adrenergic β2 [1]) | EC50 (Adrenergic β2 [2]) | β2 Int Act (Adrenergic β2 [2]) | SMILES
6 | 1.26 nM | 0.7 |  |  | O=C(CCOCCc1ccccc1)N(CCCNCCc1ccc(O)c2[nH]c(=O)sc12)CCc1ccccc1 [Example 8, N-(3-{[2-(4-Hydroxy-2-oxo-2,3-dihydro-1,3-benzothiazol-7-yl)ethyl]amino}propyl)-3-(2-phenylethoxy)-N-(2-phenylethyl)propanamide]
7 |  |  | 7.94 nM | 1 | CN(C)CCN(CCNCCc1ccc(O)c2[nH]c(=O)sc12)C(=O)CCOCCc1ccccc1 [Example 14, N-[2-(Dimethylamino)ethyl]-N-(2-{[2-(4-hydroxy-2-oxo-2,3-dihydro-1,3-benzothiazol-7-yl)ethyl]amino}ethyl)-3-(2-phenylethoxy)propanamide]
8 | 63.1 nM | 0.7 |  |  | CC(C)(C)OC(=O)N1CCC(CN(CCNCCc2ccc(O)c3[nH]c(=O)sc23)C(=O)CCOCCc2ccccc2)CC1 [Example 1, tert-Butyl 4-({(2-{[2-(4-hydroxy-2-oxo-2,3-dihydro-1,3-benzothiazol-7-yl)ethyl]amino}ethyl)[3-(2-phenylethoxy)propanoyl]amino}methyl)piperidine-1-carboxylate]
9 | 5.01 nM | 0.6 | 7.94 nM | 0.7 | O=C(CCOCCc1ccc(Br)cc1)N(CCNCCc1ccc(O)c2[nH]c(=O)sc12)CCc1ccccc1 [Example 10, 3-[2-(4-Bromophenyl)ethoxy]-N-[2-[2-(4-hydroxy-2-oxo-3H-benzothiazol-7-yl)ethylamino]ethyl]-N-phenethyl-propanamide]
10 |  |  | 63.1 nM | 0.5 | O=c1[nH]c2c(O)ccc(CCNCCN(CCCOCCc3ccccc3)CCc3ccccc3)c2s1 [Example 13, 4-Hydroxy-7-[2-({2-[[3-(2-phenylethoxy)propyl](2-phenylethyl)amino]ethyl}amino)-ethyl]-1,3-benzothiazol-2(3H)-one]
11 |  |  | 12.6 nM | 0.8 | CCN(CC)CCN(CCNCCc1ccc(O)c2[nH]c(=O)sc12)C(=O)CCOCCc1ccc(O)cc1 [Example 19, N-[2-(Diethylamino)ethyl]-N-(2-{[2-(4-hydroxy-2-oxo-2,3-dihydro-1,3-benzothiazol-7-yl)ethyl]amino}ethyl)-3-[2-(4-hydroxyphenyl)ethoxy]propanamide ditrifluoroacetate]
